Reference: ChEMBL document CHEMBL1143807, “Design and synthesis of oxime ethers of alpha-acyl-beta-phenylpropanoic acids as PPAR dual agonists” (Bioorg Med Chem Lett, 2007)

Experiments:
[1] = molecular target: T1, Peroxisome proliferator-activated receptor alpha (Homo sapiens, UniProt Q07869); assay: Agonist activity at human PPARalpha in HepG2 cells by PPAR-GAL4 transactivation assay; format: functional, cell-based
T1 sequence (Q07869 whole entry): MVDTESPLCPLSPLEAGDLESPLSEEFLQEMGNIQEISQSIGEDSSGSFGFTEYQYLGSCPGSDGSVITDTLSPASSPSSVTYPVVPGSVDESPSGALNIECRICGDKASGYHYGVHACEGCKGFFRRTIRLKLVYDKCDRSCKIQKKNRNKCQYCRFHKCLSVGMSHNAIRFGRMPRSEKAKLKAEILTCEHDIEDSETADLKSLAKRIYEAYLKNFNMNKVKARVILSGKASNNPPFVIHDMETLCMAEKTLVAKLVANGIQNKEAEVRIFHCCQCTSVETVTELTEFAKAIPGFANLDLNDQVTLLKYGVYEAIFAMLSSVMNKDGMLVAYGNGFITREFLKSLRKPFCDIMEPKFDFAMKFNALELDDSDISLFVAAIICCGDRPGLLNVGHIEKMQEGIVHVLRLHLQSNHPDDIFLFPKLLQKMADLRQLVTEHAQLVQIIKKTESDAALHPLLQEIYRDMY

[2] = molecular target: T2, Peroxisome proliferator-activated receptor gamma (Homo sapiens, UniProt P37231)
T2 sequence (P37231 whole entry): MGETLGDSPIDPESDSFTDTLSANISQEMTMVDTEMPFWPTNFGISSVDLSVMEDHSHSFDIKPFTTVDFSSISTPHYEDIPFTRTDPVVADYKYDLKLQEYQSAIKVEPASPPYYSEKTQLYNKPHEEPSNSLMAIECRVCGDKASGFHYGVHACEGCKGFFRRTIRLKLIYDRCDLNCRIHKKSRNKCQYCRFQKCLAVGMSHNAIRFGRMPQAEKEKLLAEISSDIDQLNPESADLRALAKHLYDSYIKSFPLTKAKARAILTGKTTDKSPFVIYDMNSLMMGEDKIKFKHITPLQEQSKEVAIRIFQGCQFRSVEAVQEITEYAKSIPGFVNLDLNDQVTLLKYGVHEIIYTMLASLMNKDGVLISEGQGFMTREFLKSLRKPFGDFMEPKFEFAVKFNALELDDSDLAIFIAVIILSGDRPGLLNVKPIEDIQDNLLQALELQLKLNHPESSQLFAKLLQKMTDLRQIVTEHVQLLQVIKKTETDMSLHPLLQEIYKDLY
Description: Agonist activity at human PPARgamma in HepG2 cells by PPAR-GAL4 transactivation assay

Mus musculus [3] = assay: Decrease in plasma glucose level in db/db mouse at 10 mg/kg, po; format: functional; set-up: scale not given: the % may be the effect or the level left
Mus musculus [4] = assay: Decrease in plasma triglyceride level in db/db mouse at 10 mg/kg, po; format: functional; set-up: scale not given: the % may be the effect or the level left
Mus musculus [5] = assay: Decrease in plasma triglyceride level in db/db mouse at 1 mg/kg, po; format: functional; set-up: scale not given: the % may be the effect or the level left
Mus musculus [6] = assay: Decrease in plasma glucose level in db/db mouse at 1 mg/kg, po; format: functional; set-up: scale not given: the % may be the effect or the level left
[7] = AUC (0-24 hrs) in Sprague-Dawley rat at 5 mg/kg, iv; format: ADME, organism-based; set-up: time < 24 hr, dose 5 mg/kg, route intravenous; conditions: plasma
[8] = Cmax in Sprague-Dawley rat at 10 mg/kg, po; format: ADME, organism-based; set-up: dose 10 mg/kg, route oral; conditions: in vivo
[9] = Volume of distribution in Sprague-Dawley rat at 5 mg/kg, iv; format: ADME, organism-based; set-up: dose 5 mg/kg, route intravenous; conditions: in vivo, read-out: Vdss
[10] = Bioavailability in Sprague-Dawley rat at 10 mg/kg, po; format: ADME, organism-based; conditions: in vivo
[11] = Tmax in Sprague-Dawley rat at 10 mg/kg, po; format: ADME, organism-based; set-up: dose 10 mg/kg, route oral; conditions: in vivo
[12] = AUC (0-24 hrs) in Sprague-Dawley rat at 10mg/kg, po; format: ADME, organism-based; set-up: dose 10 mg/kg, time < 24 hr, route oral; conditions: plasma
[13] = Half life in Sprague-Dawley rat at 10 mg/kg, po; format: ADME, organism-based; set-up: dose 10 mg/kg, route oral; conditions: in vivo
[14] = Half life in Sprague-Dawley rat at 5 mg/kg, iv; format: ADME, organism-based; set-up: dose 5 mg/kg, route intravenous; conditions: in vivo
Mus musculus [15] = assay: Decrease in plasma glucose level in db/db mouse at 0.1 mg/kg, po; format: functional; set-up: scale not given: the % may be the effect or the level left
Mus musculus [16] = assay: Decrease in plasma triglyceride level in db/db mouse at 0.1 mg/kg, po; format: functional; set-up: scale not given: the % may be the effect or the level left
[17] = Clearance in Sprague-Dawley rat at 5 mg/kg, iv; format: ADME, organism-based; set-up: dose 5 mg/kg, route intravenous; conditions: in vivo

| Structure (SMILES) | EC50 [1] [nM] | EC50 [2] [nM] | also measured |
| --- | --- | --- | --- |
| CCO/N=C(\C)C(Cc1ccc(OCc2nc(C(C)C)oc2C)cc1)C(=O)O (stereo not given) | 1240 | 48 |  |
| CN(CCOc1ccc(CC2SC(=O)NC2=O)cc1)c1ccccn1 (stereo not given) [ROSIGLITAZONE] |  |  | Activity (Mus musculus [3]): 65%; Activity (Mus musculus [4]): 65% |
| C/C(=N/OCc1ccc(F)cc1)C(Cc1ccc(OCCc2nc(-c3ccccc3)oc2C)cc1)C(=O)O (stereo not given) | 596 | 5 |  |
| C/C(=N\OCC1CC1)C(Cc1ccc(OCCc2nc(-c3ccccc3)oc2C)cc1)C(=O)O (stereo not given) | 3.1 | 0.36 |  |
| CCCO/N=C(\C)C(Cc1ccc(OCCc2nc(C(C)C)oc2C)cc1)C(=O)O (stereo not given) | 10 | 5.2 |  |
| CCO[C@@H](Cc1ccc(OCCc2ccc(OS(C)(=O)=O)cc2)cc1)C(=O)O [TESAGLITAZAR] | 9800 | 3530 | Activity (Mus musculus [5]): 38%; Activity (Mus musculus [6]): 68% |
| CCO/N=C(\C)C(Cc1ccc(OCc2nc(-c3ccccc3)oc2C)cc1)C(=O)O (stereo not given) | 91 | 4 |  |
| C/C(=N\OCc1ccc(F)cc1)C(Cc1ccc(OCCc2nc(-c3ccccc3)oc2C)cc1)C(=O)O (stereo not given) | 10.6 | 0.54 |  |
| CCO/N=C(\C)C(Cc1ccc(OCCc2nc(C(C)C)oc2C)cc1)C(=O)O (stereo not given) | 139 | 20 |  |
| CCCO/N=C(\C)C(Cc1ccc(OCc2nc(C(C)C)oc2C)cc1)C(=O)O (stereo not given) | 105 | 5 |  |
| CCCO/N=C(\C)C(Cc1ccc(OCc2nc(-c3ccccc3)oc2C)cc1)C(=O)O (stereo not given) | 19 | 13 | Activity (Mus musculus [3]): 73%; AUC(0-t) at 24 h [7]: 113 µg·h/mL; Cmax [8]: 22600 ng/mL; Activity (Mus musculus [4]): 58%; Vd [9]: 0.329 L/kg; Activity (Mus musculus [5]): 41%; Activity (Mus musculus [6]): 56%; bioavailability [10]: 75.5%; Tmax [11]: 0.5 h; AUC(0-t) at 24 h [12]: 162 µg·h/mL; half-life [13]: 8.05 h; half-life [14]: 5.93 h; Activity (Mus musculus [15]): 8%; Activity (Mus musculus [16]): 43%; clearance [17]: 0.8 mL/min/kg |
| CCO/N=C(\CC)C(Cc1ccc(OCCc2nc(-c3ccccc3)oc2C)cc1)C(=O)O (stereo not given) | 26 | 0.1 |  |

Now from value to molecule, other results behind:

| EC50 [1] [nM] | EC50 [2] [nM] | Structure (SMILES) | also measured |
| --- | --- | --- | --- |
| 4.9 | 0.55 | CCCO/N=C(\C)C(Cc1ccc(OCCc2nc(-c3ccccc3)oc2C)cc1)C(=O)O (stereo not given) |  |
| 32 | 0.31 | CC/C(=N\OC)C(Cc1ccc(OCCc2nc(-c3ccccc3)oc2C)cc1)C(=O)O (stereo not given) |  |
| 19 | 2.1 | CO/N=C(\C)C(Cc1ccc(OCCc2nc(-c3ccccc3)oc2C)cc1)C(=O)O (stereo not given) |  |
| 12 | 1 | CCO/N=C(\C)C(Cc1ccc(OCCc2nc(-c3ccccc3)oc2C)cc1)C(=O)O (stereo not given) |  |
| 4 | 2.1 | CCCO/N=C(\C)C(Cc1ccc(OCCc2nc(-c3ccc(F)cc3)oc2C)cc1)C(=O)O (stereo not given) |  |
| 1.3 | 0.19 | CCCCO/N=C(\C)C(Cc1ccc(OCCc2nc(-c3ccccc3)oc2C)cc1)C(=O)O (stereo not given) |  |
| 3.5 | 2.9 | C/C(=N\OCCF)C(Cc1ccc(OCCc2nc(-c3ccc(F)cc3)oc2C)cc1)C(=O)O (stereo not given) |  |
| 11.5 | 3 | CCO/N=C(\C)C(Cc1ccc(OCCc2nc(-c3ccc(F)cc3)oc2C)cc1)C(=O)O (stereo not given) |  |
| 23 | 7.7 | C/C(=N\OCCF)C(Cc1ccc(OCc2nc(-c3ccc(F)cc3)oc2C)cc1)C(=O)O (stereo not given) |  |
| 2.2 | 0.3 | C/C(=N\OCC(C)C)C(Cc1ccc(OCCc2nc(-c3ccccc3)oc2C)cc1)C(=O)O (stereo not given) |  |
| 11.7 | 28 | CCCO/N=C(\C)C(Cc1ccc(OCc2nc(-c3ccc(F)cc3)oc2C)cc1)C(=O)O (stereo not given) |  |
| 12 | 6.8 | CCO/N=C(\C)C(Cc1ccc(OCc2nc(-c3ccc(F)cc3)oc2C)cc1)C(=O)O (stereo not given) |  |
